{"source": "patent US5428059A", "about": "“Benzopyran derivatives and an anti-allergic agent possessing the same as the active ingredient” (Dainippon Ink & Chemicals, Inc., priority 1991, dated 1995)"}
{"test_system": "Hartley-type male guinea pigs", "test": "Guinea Pig Homogeneous Skin Passive Anaphylaxis Assay (PCA reaction)", "assay_type": "in vivo, guinea pig (Hartley-type)", "conditions": "10 mg/kg oral, 48 h after sensitization", "how_it_was_run": "(§1)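 Male Hartley guinea pigs (250~300 g) given intradermal back injections of 120-fold-diluted anti-OVA serum; 48 h later test substance dosed orally at 10 mg/kg, then challenged i.v. with OVA plus Evans Blue. Dye-spot area (long × short diameter, mm^2) measured at 30 min; inhibition % calculated against solvent control.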", "units": {"Allergic reaction inhibitory index (%)": "%"}}
{"compound": "COc1cccc2c(OC(C)=O)c(OC(C)=O)c(=O)oc12", "note": "[Compound 113, 3,4-(diacetoxy)-8-(methoxy)-2H-1-benzopyran-2-one]", "Allergic reaction inhibitory index (%)": 30}
{"test_system": "Hartley-type male guinea pigs", "test": "Guinea Pig Homogeneous Skin Passive Anaphylaxis Assay (PCA reaction)", "assay_type": "in vivo, guinea pig (Hartley-type)", "conditions": "Cavia porcellus, 10 mg/kg oral, 48 h after sensitization, read-out: Allergic reaction inhibitory index (%)", "how_it_was_run": "as §1", "units": {"inhibition in vivo at 10 mg/kg": "%"}}
{"compound": "CC(C)=CCC/C(C)=C/COc1c(OC(=O)c2ccccc2)c(=O)oc2c(O)cccc12", "note": "[Compound 106, 3-(benzoyloxy)-4-(geranyloxy)-8-hydroxy-2H-1-benzopyran-2-one]", "inhibition in vivo at 10 mg/kg": 31}
{"compound": "COc1c(OC/C=C(\\C)CCC=C(C)C)c(=O)oc2c(O)cccc12", "note": "[Compound 107, 3-(geranyloxy)-4-(methoxy)-8-hydroxy-2H-1-benzopyran-2-one]", "inhibition in vivo at 10 mg/kg": 33}
{"compound": "CC(C)=CCC/C(C)=C/COc1c(OC(C)C)c(=O)oc2c(O)cccc12", "note": "[Compound 108, 3-(isopropoxy)-4-(geranyloxy)-8-hydroxy-2H-1-benzopyran-2-one]", "inhibition in vivo at 10 mg/kg": 32}
{"compound": "CC(C)=CCC/C(C)=C/COc1c(OC/C=C(\\C)CCC=C(C)C)c2cccc(O)c2oc1=O", "note": "[Compound 109, 3,4-(digeranyloxy)-8-hydroxy-2H-1-benzopyran-2-one]", "inhibition in vivo at 10 mg/kg": 34}
{"compound": "COc1cccc2c(O)c(OC(=O)c3ccccc3)c(=O)oc12", "note": "[Compound 110, 3-(benzoyloxy)-4-hydroxy-8-(methoxy)-2H-1-benzopyran-2-one]", "inhibition in vivo at 10 mg/kg": 31}
{"compound": "COc1cccc2c(O)c(O)c(=O)oc12", "note": "[Compound 111, 3,4-(dihydroxy)-8-(methoxy)-2H-1-benzopyran-2-one]", "inhibition in vivo at 10 mg/kg": 38}
{"compound": "COc1cccc2c(OC(C)=O)c(O)c(=O)oc12", "note": "[Compound 112, 3-hydroxy-4-(acetoxy)-8-(methoxy)-2H-1-benzopyran-2-one]", "inhibition in vivo at 10 mg/kg": 32}
{"compound": "COc1cccc2c(OC(=O)c3ccccc3)c(OC(C)=O)c(=O)oc12", "note": "[Compound 114, 3-(acetoxy)-4-(benzoyloxy)-8-(methoxy)-2H-1-benzopyran-2-one]", "inhibition in vivo at 10 mg/kg": 31}
{"compound": "COc1c(O)c2cccc(OC)c2oc1=O", "note": "[Compound 115, 3,8-(dimethoxy)-4-hydroxy-2H-1-benzopyran-2-one]", "inhibition in vivo at 10 mg/kg": 33}
{"compound": "COc1cccc2c(OC(C)C)c(O)c(=O)oc12", "note": "[Compound 116, 3-hydroxy-4-(isopropoxy)-8-(methoxy).2H-1-benzopyran-2-one]", "inhibition in vivo at 10 mg/kg": 34}
{"compound": "CCCCCCCCCCOc1c(OC)c2cccc(OC)c2oc1=O", "note": "[Compound 117, 3-(decyloxy)-4,8-(dimethoxy)-2H-1-benzopyran-2-one]", "inhibition in vivo at 10 mg/kg": 32}
{"compound": "CCCCCCCCCCOc1c(OC(C)=O)c(=O)oc2c(OC)cccc12", "note": "[Compound 118, 3-(acetoxy)-4-(decyloxy)-8-(methoxy)-2H-1-benzopyran-2-one]", "inhibition in vivo at 10 mg/kg": 32}
{"compound": "COc1cccc2c(OC(=O)c3ccccc3)c(OC(C)C)c(=O)oc12", "note": "[Compound 119, 3-(isopropoxy)-4-(benzoyloxy)-8-(methoxy)-2H-1-benzopyran-2-one]", "inhibition in vivo at 10 mg/kg": 30}
{"compound": "COc1cccc2c(O)c(OC/C=C(\\C)CCC=C(C)C)c(=O)oc12", "note": "[Compound 120, 3-(geranyloxy)-4-hydroxy-8-(methoxy)-2H-1-benzopyran-2-one]", "inhibition in vivo at 10 mg/kg": 33}
{"compound": "COc1cccc2c(OC/C=C(\\C)CCC=C(C)C)c(O)c(=O)oc12", "note": "[Compound 121, 3-hydroxy-4-(geranyloxy)-8-(methoxy)-2H-1-benzopyran-2-one]", "inhibition in vivo at 10 mg/kg": 30}
{"compound": "COc1cccc2c(OC(=O)c3ccccc3)c(OC/C=C(\\C)CCC=C(C)C)c(=O)oc12", "note": "[Compound 122, 3-(geranyloxy)-4-(benzoyloxy)-8-(methoxy)-2H-1-benzopyran-2-one]", "inhibition in vivo at 10 mg/kg": 30}
{"compound": "COc1cccc2c(OC/C=C(\\C)CCC=C(C)C)c(OC(C)=O)c(=O)oc12", "note": "[Compound 123, 3-(acetoxy)-4-(geranyloxy)-8-(methoxy)-2H-1-benzopyran-2-one]", "inhibition in vivo at 10 mg/kg": 34}
{"compound": "COc1cccc2c(OC(C)C)c(OC/C=C(\\C)CCC=C(C)C)c(=O)oc12", "note": "[Compound 124, 3-(geranyloxy)-4-(isopropoxy)-8-(methoxy)-2H-1-benzopyran-2-one]", "inhibition in vivo at 10 mg/kg": 33}
{"compound": "COc1c(OC/C=C(\\C)CCC=C(C)C)c2cccc(OC)c2oc1=O", "note": "[Compound 125, 3,8-(dimethoxy)-4-(geranyloxy)-2H-1-benzopyran-2-one]", "inhibition in vivo at 10 mg/kg": 31}
{"compound": "COc1cccc2c(OC/C=C(\\C)CCC=C(C)C)c(OC/C=C(\\C)CCC=C(C)C)c(=O)oc12", "note": "[Compound 126, 3,4-(digeranyloxy)-8-(methoxy)-2H-1-benzopyran-2-one]", "inhibition in vivo at 10 mg/kg": 30}
{"compound": "CCCCOc1cccc2c(O)c(OC(=O)c3ccccc3)c(=O)oc12", "note": "[Compound 127, 3-(benzoyloxy)-4-hydroxy-8-(butyloxy)-2H-1-benzopyran-2-one]", "inhibition in vivo at 10 mg/kg": 34}
{"compound": "CCCCOc1cccc2c(O)c(O)c(=O)oc12", "note": "[Compound 128, 3,4-(dihydroxy)-8-(butyloxy)-2H-1-benzopyran-2-one]", "inhibition in vivo at 10 mg/kg": 40}
{"compound": "CC(C)Oc1cccc2c(O)c(OC(=O)c3ccccc3)c(=O)oc12", "note": "[Compound 129, 3-(benzoyloxy)-4-hydroxy-8-(isopropoxy)-2H-1-benzopyran-2-one]", "inhibition in vivo at 10 mg/kg": 36}
{"compound": "CC(C)Oc1cccc2c(O)c(O)c(=O)oc12", "note": "[Compound 130, 3,4-(dihydroxy)-8-(isopropoxy)-2H-1-benzopyran-2-one]", "inhibition in vivo at 10 mg/kg": 39}
{"compound": "CC(=O)Oc1c(O)c(=O)oc2c(OC(C)C)cccc12", "note": "[Compound 131, 3-hydroxy-4-(acetoxy)-8-(isopropoxy)-2H-1-benzopyran-2-one]", "inhibition in vivo at 10 mg/kg": 31}
{"compound": "CC(=O)Oc1c(OC(C)=O)c2cccc(OC(C)C)c2oc1=O", "note": "[Compound 132, 3,4-(diacetoxy)-8-(isopropoxy)-2H-1-benzopyran-2-one]", "inhibition in vivo at 10 mg/kg": 32}
{"compound": "CCCCCCCCCCOc1c(O)c2cccc(OC(C)C)c2oc1=O", "note": "[Compound 133, 3-(decyloxy)-4-hydroxy-8-(isopropoxy)-2H-1-benzopyran-2-one]", "inhibition in vivo at 10 mg/kg": 36}
{"compound": "CC(C)Oc1c(O)c(=O)oc2c(OC(C)C)cccc12", "note": "[Compound 134, 3-hydroxy-4,8-(disopropoxy)-2H-1-benzopyran-2-one]", "inhibition in vivo at 10 mg/kg": 30}
{"compound": "CCCCCCCCCCOc1c(OC)c(=O)oc2c(OC(C)C)cccc12", "note": "[Compound 135, 3-(methoxy)-4-(decyloxy)-8-(isopropoxy)-2H-1-benzoyran-2-one]", "inhibition in vivo at 10 mg/kg": 30}
{"compound": "CCCCCCCCCCOc1c(OC(C)=O)c(=O)oc2c(OC(C)C)cccc12", "note": "[Compound 136, 3-(acetoxy)-4-(decyloxy)-8-(isopropoxy)-2H-1-benzopyran-2-one]", "inhibition in vivo at 10 mg/kg": 33}
{"compound": "CCCCCCCCCCOc1c(OC(=O)c2ccccc2)c2cccc(OC(C)C)c2oc1=O", "note": "[Compound 137, 3-(decyloxy)-4-(benzoyloxy)-8-(isopropoxy)-2H-1-benzopyran-2-one]", "inhibition in vivo at 10 mg/kg": 32}
{"compound": "CC(C)=CCC/C(C)=C/COc1c(O)c2cccc(OC(C)C)c2oc1=O", "note": "[Compound 138, 3-(geranyloxy)-4-hydroxy-8-(isopropoxy)-2H-1-benzopyran-2-one]", "inhibition in vivo at 10 mg/kg": 35}
{"compound": "CC(C)=CCC/C(C)=C/COc1c(O)c(=O)oc2c(OC(C)C)cccc12", "note": "[Compound 139, 3-hydroxy-4-(geranyloxy)-8-(isopropoxy)-2H-1-benzopyran-2-one]", "inhibition in vivo at 10 mg/kg": 33}
{"compound": "CC(C)=CCC/C(C)=C/COc1c(OC(C)C)c2cccc(OC(C)C)c2oc1=O", "note": "[Compound 140, 3-(geranyloxy)-4,8-(diisopropoxy)-2H-1-benzopyran-2-one]", "inhibition in vivo at 10 mg/kg": 30}
